Reference: patent publication US4744985A, “Novel substances having carcinostatic and immunostimulating activity, process for preparing the same and carcinostatic agent containing the same” (Toyama Chemical Co., Ltd., priority 1979, dated 1988)

Assays:
B-16 melanoma [1] = test: Antitumor activity against B-16 melanoma (tumor growth); type: in vivo, BDF1 strain mice (male, 7 weeks old); details: 20 mg/kg × 6
Experimental: (§1) (1) B-16 Melanoma tumor cells were subcutaneously transplanted at the armpit to BDF1 strain mice (male, 7 weeks old) in an amount of 1×10^6 cells per mouse. Subsequently, TF-133a was intraperitoneally administered to the mice in a dosage of 5 mg/kg or 10 mg/kg once a day on the first day and from the third day to the seventh day, for 6 days in total, after the transplantation of the tumor cells. In the same manner as above, 0.2 ml of a physiological salt solution was administered to the control group, and 20 mg/kg of 5-FU to the group for 5-FU administration.

B-16 melanoma [2] = test: Metastasis of B-16 melanoma tumor cells to the lungs; type: in vivo, BDF1 strain mice (male, 7 weeks old); details: 20 mg/kg × 6, 21st day
Experimental: as §1
(2) The transplantation of B-16 melanoma tumor cells and the administration of TF-132a, TF-133a, 5-FU and a physiological salt solution were carried out in the same manner as in above (1). On the 21st day after the transplantation of the tumor cells, the mice were dissected, and the metastasis of the melanoma tumor cells to the lungs was observed.

O=c1[nH]cc(F)c(=O)[nH]1 [5-FU]
Average tumor weight (B-16 melanoma [1]): 4.21 g
T/C (B-16 melanoma [1]): 72%
Average number of metastasis (B-16 melanoma [2]): 24.8
Percentage of metastasis inhibition (B-16 melanoma [2]): 20%
